Laboratory results as given in publication PMC8625065 (Molecules, 2021).
Structures can show the parent of a compound that is named as a salt. Marks after values point to notes of the source that are not given here.

Experiments:
[1] = tested on: A549 (lung adenocarcinoma); assay: MTT proliferation assay, 72 h; assay type: cell-based; settings: Homo sapiens, A549 cells
Procedure: (§1) The cell lines HeLa (cervical carcinoma), SW620 (colorectal adenocarcinoma, metastatic), A549 (lung adenocarcinoma), HepG2 (hepatocellular carcinoma) and HFF (human foreskin fibroblasts) were cultured as monolayers and maintained in Dulbecco’s modified Eagle medium (DMEM), supplemented with 10% fetal bovine serum (FBS), 2mM L-glutamine, 100 U/mL penicillin and 100 μg/mL streptomycin in a humidified atmosphere with 5% CO2 at 37 °C.
(§2) Cells were seeded onto 96-well microtiter plates at a seeding density of 3000 cells/well for carcinoma cell lines, and 5000 cells/well for normal human fibroblasts. The next day, cells were treated with test agents at five different concentrations (0.01–100 µM) and further incubated for 72 h. […] Following 72 h incubation, the MTT assay was performed and measured absorbances were transformed into percentage of cell growth as described previously. Results were obtained from three independent experiments.

[2] = tested on: HeLa (cervical carcinoma); assay: MTT proliferation assay, 72 h; assay type: cell-based, human; settings: for IC50: Homo sapiens, HeLa cells, MTT, 72 h
Procedure: as §1, §2

[3] = tested on: HepG2 (hepatocellular carcinoma); assay: MTT proliferation assay, 72 h; assay type: cell-based, human; settings: for IC50: Homo sapiens, HepG2 cells, MTT, 72 h
Procedure: as §1, §2

[4] = tested on: SW620 (colorectal adenocarcinoma, metastatic); assay: MTT proliferation assay, 72 h; assay type: cell-based, human; settings: for IC50: Homo sapiens, SW-620, SW620 cells, MTT, 72 h
Procedure: as §1, §2

[5] = tested on: HFF (human foreskin fibroblasts); assay: MTT proliferation assay, 72 h, non-tumor cells; assay type: cell-based; parameters: selectivity index (SI): reference not given here; settings: for IC50: Homo sapiens, Fibroblast, non-tumor HFF fibroblasts, MTT, 72 h
Procedure: as §1, §2

ctDNA (calf thymus DNA) = assay: Fluorimetric titration, Scatchard processing; assay type: binding; settings: pH 7.0, sodium cacodylate buffer, I = 0.05 mol dm^-3
Procedure: (§3) Compound solutions were used for measurements in aqueous buffer (pH = 7, sodium cacodylate buffer, I = 0.05 mol dm^−3). Polynucleotides were purchased as noted: poly A-poly U, poly (dAdT)2 and calf thymus (ct)DNA (Sigma-Aldrich). Polynucleotides were dissolved in Na-cacodylate buffer, I = 0.05 mol dm^−3, pH = 7. The calf thymus ctDNA was additionally sonicated and filtered through a […]. Polynucleotide concentration was determined spectroscopically as the concentration of phosphates.
(§4) Fluorescence spectra were recorded on a Varian Cary Eclipse spectrophotometer at 25 °C using appropriate 1cm path quartz cuvettes. Fluorometric experiments were performed at pH = 7 (I = 0.05 mol dm^−3, sodium cacodylate buffer) by adding portions of polynucleotide solution into the solution of the studied compound. In fluorometric experiments, an excitation wavelength of λexc ≥ 300 nm was used to avoid the inner filter effect caused due to increasing absorbance of the polynucleotide. Emissions were determined in the range λem = 300–600 nm. Values for Ks obtained by processing titration data using the Scatchard equation [40], in most titrations have satisfactory correlation coefficients (≥0.98).

p(dAdT)2 (AT-DNA) = assay: Fluorimetric titration, Scatchard processing; assay type: binding; settings: p(dAdT)2, pH 7.0, sodium cacodylate buffer, I = 0.05 mol dm^-3
Procedure: as §3, §4

poly A-poly U (AU-RNA) = assay: Fluorimetric titration, Scatchard processing; assay type: binding; settings: pH 7.0, sodium cacodylate buffer, I = 0.05 mol dm^-3
Procedure: as §3, §4

ctDNA = assay: Thermal melting experiment; assay type: binding, calf; settings: r = [compound]/[polynucleotide] = 0.3, pH 7.0, error ±0.5 °C
Procedure: (§5) Compound solutions were used for measurements in aqueous buffer (pH = 7, sodium cacodylate buffer, I = 0.05 mol dm^−3). Polynucleotides were purchased as noted: poly A-poly U, poly (dAdT)2 and calf thymus (ct)DNA (Sigma-Aldrich). Polynucleotides were dissolved in Na-cacodylate buffer, I = 0.05 mol dm^−3, pH = 7. The calf thymus ctDNA was additionally sonicated and filtered through a […]. Polynucleotide concentration was determined spectroscopically as the concentration of phosphates. UV–Vis spectra were recorded on a Varian Cary 100 Bio spectrophotometer using 1cm path quartz cuvettes. Calibration experiments were performed at 25 °C and pH = 7 (I = 0.05 mol dm^−3, sodium cacodylate buffer). Thermal melting curves for DNA and their complexes with studied compounds were determined as previously described by following the absorption change at 260 nm as a function of temperature. The absorbance of the ligands was subtracted from every curve and the absorbance scale was normalized. Tm values are the midpoints of the transition curves determined from the maximum of the first derivative and checked graphically by the tangent method. The ΔTm values were calculated by subtracting the Tm of the free nucleic acid from the Tm of the complex. Every ΔTm value reported here was the average of at least two measurements. The error in ΔTm is ±0.5 °C.

poly A-poly U = assay: Thermal melting experiment; assay type: binding; settings: r = 0.3, pH 7.0, error ±0.5 °C
Procedure: as §5

poly(dAdT)2 = assay: Thermal melting experiment; assay type: binding; settings: poly(dAdT)2, r = 0.3, pH 7.0; error ±0.5 °C
Procedure: as §5

[6] = tested on: poly (dAdT)2 (DNA, polymer) AT; assay: UV thermal melting, 260 nm; settings: Na+ (sodium cacodylate, I = 0.05 M); sodium cacodylate buffer pH 7
[7] = tested on: poly (dAdT)2 (DNA, polymer) AT; assay: fluorescence titration, Scatchard; settings: Na+ (sodium cacodylate, I = 0.05 M); sodium cacodylate buffer pH 7.0, 25 °C; polynucleotide concentration as phosphates; per base
[8] = tested on: poly A-poly U (RNA, polymer) A/U; assay: fluorescence titration, Scatchard; settings: Na+ (sodium cacodylate, I = 0.05 M); sodium cacodylate buffer pH 7.0, 25 °C; polynucleotide concentration as phosphates; per base
[9] = Solubility of stock solution in water; assay type: physicochemical; settings: c = 2 × 10^−3 mol dm^−3
Source text: Based upon the antiproliferative activity, several compounds from a series of novel amidine- and amidoxime-substituted heterocycles (5, 6, 8–11 and 20) were selected for the study with calf thymus DNA (ctDNA), alternating AT-DNA (poly (dAdT)2) and AU-RNA (poly A-poly U).

[10] = tested on: poly A-poly U (RNA, polymer) A/U; assay: CD titration; settings: Na+ (sodium cacodylate, I = 0.05 M); sodium cacodylate buffer pH 7, 25 °C; weak negative ICD near 300 nm, intercalation
[11] = tested on: poly A-poly U (RNA, polymer) A/U; assay: UV thermal melting, 260 nm; settings: Na+ (sodium cacodylate, I = 0.05 M); sodium cacodylate buffer pH 7

SMILES: c1cc(C2=NCCN2)c2ccn(Cc3cn(-c4ccc(C5=NCCN5)cc4)nn3)c2c1 [Compound 6, 1-((1-(4-(Dihydro-1H-imidazol-2-yl)phenyl)-1H-1,2,3-triazol-4-yl)methyl)-4-(dihydro-1H-imidazol-2-yl)-1H-indole dihydrochloride]
- IC50 [1]: 49.9 µM
- IC50 [2]: 13.5 µM
- IC50 [3]: 2.37 µM
- IC50 [4]: 18 µM
- IC50 [5]: < 0.01 µM
- logKs (ctDNA (calf thymus DNA)): 5.0
- logKs (p(dAdT)2 (AT-DNA)): 6.6
- logKs (poly A-poly U (AU-RNA)): 4.2
- ΔTm (ctDNA): 2 °C
- ΔTm (poly A-poly U): 0 °C
- ΔTm (poly(dAdT)2): 6 °C

SMILES: c1cc(C2=NCCN2)c2ccn(Cc3cn(-c4ccc(C5=NCCN5)cc4)nn3)c2c1
- binding [6]: yes
- logKs [7]: 6.6
- logKs [8]: 4.2

SMILES: N/C(=N\O)c1ccc(-n2cc(COc3cccc4ccc(/C(N)=N/O)nc34)nn2)cc1 [Compound 20, (Z)-N′-Hydroxy-8-((1-(4-((Z)-N′-hydroxycarbamimidoyl)phenyl)-1H-1,2,3-triazol-4-yl)methoxy)quinoline-2-carboximidamide]
- IC50 [1]: 31.4 µM
- selectivity index (SI) on HeLa ([2]; HFF versus HeLa cells): > 14
- IC50 [2]: 7.15 µM
- IC50 [3]: 51.3 µM
- selectivity index (SI) on SW620 ([4]; HFF versus SW620 cells): > 14
- IC50 [4]: 7.24 µM
- logKs (ctDNA (calf thymus DNA)): 4.3 ^d
- logKs (p(dAdT)2 (AT-DNA)): 4.7 ^d
- logKs (poly A-poly U (AU-RNA)): 4.6 ^d
- ΔTm (ctDNA): 0 °C
- ΔTm (poly A-poly U): 0 °C
- ΔTm (poly(dAdT)2): 0 °C
- solubility in water [9]: small aggregation
- melting point: 238 to 241 °C

SMILES: Cl.O=c1cc(OCc2cn(-c3ccc(C4=NCCN4)cc3)nn2)c2ccccc2o1 [Compound 10, 4-((1-(4-(4,5-Dihydro-1H-imidazol-2-yl)phenyl)-1H-1,2,3-triazol-4-yl)methyloxy)-coumarin hydrochloride]
- IC50 [1]: 7.86 µM
- IC50 [2]: 1.9 µM
- IC50 [3]: 3.55 µM
- IC50 [4]: 1.75 µM
- IC50 [5]: < 0.01 µM
- logKs (p(dAdT)2 (AT-DNA)): 6.7
- ΔTm (ctDNA): 0 °C
- ΔTm (poly A-poly U): 0 °C
- ΔTm (poly(dAdT)2): 2 °C
- binding [10]: yes
- binding [6]: yes
- logKs [7]: 6.7

SMILES: Cl.c1cnc2c(OCc3cn(-c4ccc(C5=NCCN5)cc4)nn3)cccc2c1 [Compound 9, 8-((1-(4-(4,5-Dihydro-1H-imidazol-2-yl)phenyl)-1H-1,2,3-triazol-4-yl)methyloxy)-quinoline hydrochloride]
- IC50 [1]: 25.2 µM
- IC50 [2]: 10.3 µM
- IC50 [3]: 9.07 µM
- IC50 [4]: 2.69 µM
- IC50 [5]: < 0.01 µM
- logKs (ctDNA (calf thymus DNA)): 5.3
- logKs (p(dAdT)2 (AT-DNA)): 5.8
- logKs (poly A-poly U (AU-RNA)): 5.1
- ΔTm (ctDNA): 1 °C
- ΔTm (poly A-poly U): 0 °C
- ΔTm (poly(dAdT)2): 3 °C
- melting point: 229 to 232 °C
- binding [6]: yes
- logKs [7]: 5.8
- logKs [8]: 5.1

SMILES: Cl.O=c1ccc2ccc(OCc3cn(-c4ccc(C5=NCCN5)cc4)nn3)cc2o1 [Compound 11, 7-((1-(4-(4,5-Dihydro-1H-imidazol-2-yl)phenyl)-1H-1,2,3-triazol-4-yl)methyloxy)-coumarin hydrochloride]
- IC50 [1]: 4.49 µM
- IC50 [2]: 2.13 µM
- selectivity index (SI) on HepG2 ([3]; HFF versus HepG2 cells): 11
- IC50 [3]: 0.28 µM
- IC50 [4]: 4.77 µM
- IC50 [5]: 3.14 µM
- logKs (p(dAdT)2 (AT-DNA)): 4.9
- logKs (poly A-poly U (AU-RNA)): 4.9
- ΔTm (ctDNA): 0 °C
- ΔTm (poly A-poly U): 0 °C
- ΔTm (poly(dAdT)2): 2 °C
- melting point: > 250 °C
- binding [6]: yes
- logKs [7]: 4.9
- logKs [8]: 4.9

SMILES: Cl.Cl.c1cc(C2=NCCN2)ccc1OCc1cn(-c2ccc(C3=NCCN3)cc2)nn1 [Compound 5, 1-(4-(4,5-Dihydro-1H-imidazol-2-yl)-phenyl]-4-((4-(4,5-dihydro-1H-imidazol-2-yl)phenyloxy)methyl]-1H-1,2,3-triazole dihydrochloride]
- IC50 [1]: 15.7 µM
- IC50 [2]: 0.8 µM
- IC50 [3]: 0.64 µM
- IC50 [4]: 0.22 µM
- IC50 [5]: < 0.01 µM
- logKs (ctDNA (calf thymus DNA)): 5.7
- logKs (p(dAdT)2 (AT-DNA)): 6.5
- logKs (poly A-poly U (AU-RNA)): 7.0
- ΔTm (ctDNA): 5 °C
- ΔTm (poly A-poly U): 2 °C
- ΔTm (poly(dAdT)2): 14 °C
- melting point: > 250 °C
- binding [6]: yes
- binding [11]: yes
- logKs [7]: 6.5
- logKs [8]: 7.0

SMILES: Cl.c1cnc2c(NCc3cn(-c4ccc(C5=NCCN5)cc4)nn3)cccc2c1 [Compound 8, 8-(((1-(4-(4,5-Dihydro-1H-imidazol-2-yl)phenyl)-1H-1,2,3-triazol-4-yl)methyl)amino)-quinoline hydrochloride]
- IC50 [1]: 29.1 µM
- IC50 [2]: 23.8 µM
- IC50 [3]: 4.84 µM
- IC50 [4]: 35.6 µM
- IC50 [5]: 11.7 µM
- selectivity index (SI) ([5]; normal HFF fibroblasts versus tumor cells): 2
- logKs (p(dAdT)2 (AT-DNA)): 5.5
- ΔTm (ctDNA): 0 °C
- ΔTm (poly A-poly U): 0 °C
- ΔTm (poly(dAdT)2): 1 °C
- melting point: 192 to 196 °C
- logKs [7]: 5.5
